For this assay, the target named is GCN2 (Homo sapiens, UniProt Q9P2K8). Kind of assay: TR-FRET assay for inhibition of GCN2 (Example 107, for Examples 40-72). In general terms: In TR-FRET formats the signal depends on donor and acceptor labels being close together.

As a reminder, the IC50 is the concentration that inhibits the measured activity by half. Read a high IC50 as weaker potency in that assay.

Sequence of GCN2 (Q9P2K8 whole entry): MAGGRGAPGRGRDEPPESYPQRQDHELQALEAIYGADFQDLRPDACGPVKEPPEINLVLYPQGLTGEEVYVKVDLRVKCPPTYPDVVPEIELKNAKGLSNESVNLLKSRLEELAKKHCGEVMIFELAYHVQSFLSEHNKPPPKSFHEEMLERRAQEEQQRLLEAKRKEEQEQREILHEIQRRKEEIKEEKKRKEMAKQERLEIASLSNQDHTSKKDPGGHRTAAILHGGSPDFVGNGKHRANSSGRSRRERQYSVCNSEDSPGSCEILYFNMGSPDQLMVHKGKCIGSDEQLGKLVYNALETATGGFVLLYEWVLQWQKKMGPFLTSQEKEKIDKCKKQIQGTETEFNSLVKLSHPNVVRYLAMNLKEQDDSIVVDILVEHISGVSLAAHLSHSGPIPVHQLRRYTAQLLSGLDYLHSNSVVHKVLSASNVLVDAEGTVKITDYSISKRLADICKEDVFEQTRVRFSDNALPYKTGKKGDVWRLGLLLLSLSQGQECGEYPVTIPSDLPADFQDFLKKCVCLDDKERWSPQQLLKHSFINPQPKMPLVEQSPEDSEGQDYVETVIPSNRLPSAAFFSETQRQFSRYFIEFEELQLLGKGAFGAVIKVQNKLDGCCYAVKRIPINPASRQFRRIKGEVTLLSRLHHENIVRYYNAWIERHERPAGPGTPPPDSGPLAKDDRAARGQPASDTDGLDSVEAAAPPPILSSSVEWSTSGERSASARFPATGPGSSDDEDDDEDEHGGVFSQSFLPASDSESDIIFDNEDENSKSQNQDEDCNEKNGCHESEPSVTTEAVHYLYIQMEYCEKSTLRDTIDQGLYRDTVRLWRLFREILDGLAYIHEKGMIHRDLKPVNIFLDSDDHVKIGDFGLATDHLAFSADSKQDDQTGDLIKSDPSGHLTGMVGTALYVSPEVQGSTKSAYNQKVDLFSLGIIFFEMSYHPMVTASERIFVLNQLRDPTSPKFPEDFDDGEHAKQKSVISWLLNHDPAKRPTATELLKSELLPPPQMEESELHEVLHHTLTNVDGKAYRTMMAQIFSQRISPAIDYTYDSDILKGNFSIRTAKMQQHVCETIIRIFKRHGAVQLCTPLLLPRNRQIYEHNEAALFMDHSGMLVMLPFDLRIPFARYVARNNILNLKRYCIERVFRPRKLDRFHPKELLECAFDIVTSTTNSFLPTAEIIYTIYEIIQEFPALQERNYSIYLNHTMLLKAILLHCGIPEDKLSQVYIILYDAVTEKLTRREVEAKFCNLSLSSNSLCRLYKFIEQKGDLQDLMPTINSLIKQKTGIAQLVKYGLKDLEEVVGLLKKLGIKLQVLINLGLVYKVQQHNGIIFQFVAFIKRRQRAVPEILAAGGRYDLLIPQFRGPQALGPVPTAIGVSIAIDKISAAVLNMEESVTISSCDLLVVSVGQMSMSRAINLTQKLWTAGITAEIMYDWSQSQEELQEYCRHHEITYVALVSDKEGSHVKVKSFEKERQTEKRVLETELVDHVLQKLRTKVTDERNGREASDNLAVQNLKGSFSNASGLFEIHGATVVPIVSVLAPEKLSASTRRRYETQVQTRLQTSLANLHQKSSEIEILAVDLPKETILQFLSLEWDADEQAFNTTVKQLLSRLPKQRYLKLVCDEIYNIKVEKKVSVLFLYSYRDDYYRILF

As for `COc1ncc(Cl)cc1S(=O)(=O)Nc1ccc(F)c(-c2ccc3c(C(=O)NC4CCNC4=O)n[nH]c3c2F)c1F` (stereo not drawn) [Example 54, 6-[3-(5-Chloro-2-methoxypyridine-3-sulfonamido)-2,6-difluorophenyl]-7-fluoro-N-(2-oxopyrrolidin-3-yl)-1H-indazole-3-carboxamide], the IC50 was below 500 nM.
In turn, `COc1ncc(Cl)cc1S(=O)(=O)Nc1ccc(F)c(-c2ccc3c(C(=O)NC(C)CCO)n[nH]c3c2F)c1F` (stereo not drawn) [Example 60, 6-[3-(5-chloro-2-methoxypyridine-3-sulfonamido)-2,6-difluorophenyl]-7-fluoro-N-(4-hydroxybutan-2-yl)-1H-indazole-3-carboxamide] returned an IC50 below 500 nM.
With `CCCC(C)NC(=O)c1n[nH]c2c(F)c(-c3c(F)ccc(NS(=O)(=O)c4cc(Cl)cnc4OC)c3F)ccc12` (stereo not drawn) [Example 59, 6-[3-(5-Chloro-2-methoxypyridine-3-sulfonamido)-2,6-difluorophenyl]-7-fluoro-N-(pentan-2-yl)-1H-indazole-3-carboxamide], the IC50 is below 500 nM.
Under `CNC(=O)c1n[nH]c2c(F)c(-c3c(F)ccc(NS(=O)(=O)c4cc(F)cnc4C)c3F)ccc12` [Example 65, 6-[2,6-difluoro-3-(5-fluoro-2-methylpyridine-3-sulfonamido)phenyl]-7-fluoro-N-methyl-1H-indazole-3-carboxamide] stands below 500 nM; under `COc1ncc(Cl)cc1S(=O)(=O)Nc1ccc(F)c(-c2ccc3c(C(=O)NC4CCCOC4)n[nH]c3c2F)c1F` (stereo not drawn) [Example 55, 6-[3-(5-Chloro-2-methoxypyridine-3-sulfonamido)-2,6-difluorophenyl]-7-fluoro-N-(oxan-3-yl)-1H-indazole-3-carboxamide], below 500 nM; under `COc1ncc(Cl)cc1S(=O)(=O)Nc1ccc(F)c(-c2ccc3c(C(=O)NCC(C)C)n[nH]c3c2F)c1F` [Example 48, 6-[3-(5-Chloro-2-methoxypyridine-3-sulfonamido)-2,6-difluorophenyl]-7-fluoro-N-(2-methylpropyl)-1H-indazole-3-carboxamide], below 500 nM.
In turn, `CNC(=O)c1n[nH]c2c(F)c(-c3c(F)ccc(NS(=O)(=O)c4cc(F)cnc4OC)c3F)ncc12` [Example 70, 6-[2,6-Difluoro-3-(5-fluoro-2-methoxypyridine-3-sulfonamido)phenyl]-7-fluoro-N-methyl-1H-pyrazolo[4,3-c]pyridine-3-carboxamide] had an IC50 below 500 nM.
In the case of `COc1ncc(Cl)cc1S(=O)(=O)Nc1ccc(F)c(-c2ccc3c(C(=O)NC4CCNC4)n[nH]c3c2F)c1F` (stereo not drawn) [Example 57, 6-[3-(5-Chloro-2-methoxypyridine-3-sulfonamido)-2,6-difluorophenyl]-7-fluoro-N-(pyrrolidin-3-yl)-1H-indazole-3-carboxamide], the IC50 was below 500 nM.
`CNC(=O)c1n[nH]c2c(F)c(-c3c(F)ccc(NS(=O)(=O)c4cc(F)cc(CO)c4)c3F)ccc12` [Example 42, 6-[2,6-difluoro-3-[3-fluoro-5-(hydroxymethyl)benzenesulfonamido]phenyl]-7-fluoro-N-methyl-1H-indazole-3-carboxamide] gave a half-maximal inhibitory concentration (IC50) below 500 nM.
Under `CNC(=O)c1n[nH]c2c(F)c(-c3c(F)ccc(NS(=O)(=O)c4cc(Cl)cnc4C)c3F)ncc12` [Example 72, 6-[3-(5-Chloro-2-methylpyridine-3-sulfonamido)-2,6-difluorophenyl]-7-fluoro-N-methyl-1H-pyrazolo[4,3-c]pyridine-3-carboxamide] stands below 500 nM.
Then `CCNC(=O)c1n[nH]c2c(F)c(-c3c(F)ccc(NS(=O)(=O)c4cc(Cl)cnc4OC)c3F)ccc12` [Example 49, 6-(3-((5-Chloro-2-methoxypyridine)-3-sulfonamido)-2,6-difluorophenyl)-N-ethyl-7-fluoro-1H-indazole-3-carboxamide], with below 500 nM; and `COc1ncc(Cl)cc1S(=O)(=O)Nc1ccc(F)c(-c2ccc3c(-c4ncco4)n[nH]c3c2F)c1F` [Example 64, 5-chloro-N-[2,4-difluoro-3-[7-fluoro-3-(1,3-oxazol-2-yl)-1H-indazol-6-yl]phenyl]-2-methoxypyridine-3-sulfonamide], with below 500 nM.
